Assay results from patent publication US20240277744A1, “TREATMENT OF CHEMORESISTANT CANCER CELLS” (Cornell University, priority 2023, published 2024).
Counter-ions that a name gives are not always drawn.

Key:
A549 cell line = test: Flow cytometry of TRA-1-81+ cells; format: cell-based
Method: (§1) Flow cytometry. TRA-1-60 PerCP-efluor710 (eBioscience, 1:50) and TRA-1-81 PE (eBioscience, 1:100) were used. Cells were blocked with 5% FBS plus mouse IgM isotype control antibody (eBioscience, 1:100) at room temperature for 15 min, then stained on ice for 30 min. Stained cells were resuspended in PBS containing 300 nM DAPI and proceeded to analysis or sorting. Cell apoptosis was analyzed with FITC-AnnexinV labeling reagent (BD). Flow cytometry analysis was carried out on BD FACS Calibur with FlowJo 9.8 software. Sorting was performed with FACSVantage SE (Becton Dickinson).

TRA-1-81+ SW1990 cells = test: Flow cytometry of TRA-1-81+ cells; format: cell-based; details: SW1990; 5 days; GEM 50, 100 or 250 nM; flow cytometry
Method: as §1

SW1990 cells = test: Cell viability (DAPI nuclei count, high content imaging); format: cell-based; details: Homo sapiens; parental SW1990; read-out: IC50 for GEM (viability)
Method: (§2) Cell viability, colony formation, sphere formation and growth curve. To quantify viability, cells were plated into 96-well plates (6000/well) one night before treatment. […] After fixation, cell nuclei were stained with DAPI (Invitrogen). Plates were analyzed using MetaXpress High Content Image Acquisition and Analysis System (Molecular Devices).

SW1990GR cells = test: as above; format: cell-based; details: GEM-resistant line, read-out: IC50 for GEM (viability)
Method: To establish GR cell lines, cells were first cultured with 10 nM GEM till cell growth became stable. […] Once cell growth became stable in 100 nM GEM, cells were expanded in 100 nM GEM and used in assays.
as §2

DU145 cell line = test: Flow cytometry of TRA-1-81+ cells; format: cell-based; details: DU145; flow cytometry
Method: as §1

HCT116 cell line = test: Flow cytometry of TRA-1-81+ cells; format: cell-based; details: HCT116; flow cytometry
Method: as §1

HT29 cell line = test: Flow cytometry of TRA-1-81+ cells; format: cell-based
Method: as §1

RKO cell line = test: Flow cytometry of TRA-1-81+ cells; format: cell-based
Method: as §1

SW1990 xenograft tumors [1] = test: Luciferase-labeled SW1990 xenograft in nude mice; format: in vivo
Method: CYM suppresses TRA-1-60 expression and blocks tumor growth in vivo. Next it was sought to validate the effects of CYM in vivo, using a xenograft model with luciferase-labeled SW1990 cells propagated in nude mice. Tumor-harboring mice were separated into 4 groups and treated with PBS (control), 2 mg/kg CYM, 50 mg/kg GEM, or 2 mg/kg CYM plus 50 mg/kg GEM through intraperitoneal injections twice per week. Luciferase intensity was quantified twice per week and normalized with the value obtained from the starting day. […] Consistent with imaging, of the four groups, mice treated with GEM plus CYM generated xenograft tumors with the smallest size (FIG. 6C) and weight (FIG. 6D).
(§3) Tissue samples were fixed with 4% paraformaldehyde overnight at 4° C., washed with 70% ethanol and then embedded in paraffin. After De-paraffin and rehydration, antigen retrieval was preceded in hot antigen retrieving buffer with a normal-pressure steamer for 30 min. blocking was proceeded 1 hour at room temperature in PBS containing 1% horse serum. Primary antibody was stained overnight at 4° C. in PBS plus 0.5% Triton X-100 and 5% horse serum. Secondary antibody was incubated at room temperature for 1.5 hours.
Mouse Procedures. To assess in vivo effects of Cymarin (CYM), Luciferase-labelled SW1990 cells were transplanted to nude mice subcutaneously. Each mouse received four injections (5×10^5 cells/site). 12 days later, mice were randomly separated into 4 groups and treated with PBS (control), GEM (50 mg/kg bodyweight), CYM (2 mg/kg bodyweight) or GEM (50 mg/kg bodyweight) plus CYM (2 mg/kg bodyweight) twice weekly via intraperitoneal injection. Image acquisition was performed twice weekly with Xtreme Optical and X-ray small animal imaging system. Luciferin potassium salt (Regis), substrate of luciferase, was applied at 2 mg/25 g bodyweight in 150 μl PBS. Isoflurane (Henry Schein) was used for anesthesia during imaging.

SW1990 xenograft tumors [2] = test: GEM-resistant SW1990 xenograft passaged in nude mice; details: 50 mg/kg GEM i.p. twice a week, 3 passages in vivo, vs PBS control
Method: Whether the epitope of TRA-1-60 and TRA-1-81 antibodies also enriches CCCs in vivo, with xenograft tumors in nude mice derived from SW1990 cells implanted subcutaneously, was examined. Mice carrying tumors were randomly separated into two groups: one was treated with 50 mg/kg GEM via intraperitoneal injection twice a week for 4 weeks; the other was treated with the same volume of PBS as control. After 3 passages in vivo (˜6 months), the control and GR xenograft tumors were analyzed with immunofluorescence (FIG. 1K).
as §3

[3] = tested on: primary human xenograft tumor; test: Patient derived pancreatic adenocarcinoma xenograft in nude mice; format: in vivo; details: 50 mg/kg GEM twice weekly, one month; not in control tumors
Method: To examine whether TRA-1-60 expression correlates with chemotherapy treatment in primary tumors, a human pancreatic adenocarcinoma specimen was freshly collected after surgery, transplanted to nude mice and expanded subcutaneously. Mice carrying the primary human xenograft tumor were separated into two groups: one group was treated with 50 mg/kg GEM twice weekly while the other group received the same volume of PBS as control. After one month, xenograft tumors were stained with TRA-1-60 antibody. TRA-1-60 staining was detected in GEM-treated xenograft tumors but not control xenograft tumors (FIG. 7C, D), confirming that TRA-1-60 expression is positively correlated with chemoresistance.
as §3

TRA-1-60+ SW1990GR cells = test: High content screen / immunofluorescent staining of TRA-1-60+ cells; format: cell-based; details: SW1990GR
Method: Immunofluorescent staining. Primary antibodies were TRA-1-60 antibody (BD, 1:200), biotin conjugated TRA-1-60 antibody (eBioscience, 1:200). Secondary antibodies were donkey anti-mouse Alexa-efluor594 (Life technologies, 1:500) or streptavidin conjugated Alexa Fluor® 594 (Life technologies, 1:200).
Cells were fixed with 10% formalin for 20 min at room temperature. After 1 hour blocking in PBS with 5% horse serum and 0.3% triton-X100, primary antibodies were added to cells and incubated overnight at 4° C. Secondary antibody incubation was 1.5 hours at room temperature.
Chemical library screening. The Prestwick library of FDA approved drugs (˜1280 chemicals) plus a collection of drugs in clinical trials was used for the screen on SW1990GR cells.
For screening, SW1990GR cells were plated in 384-well plates (5000 cells/well). After overnight incubation, chemicals were added at 1 μM or 10 μM in duplicate. After 5 days of treatment, plates were stained with TRA-1-60 antibody and analyzed with MetaXpress High Content Image Acquisition and Analysis System (Molecular Devices). Wells treated with DMSO were set as control. The reduction was calculated by subtracting the percentage of TRA-1-60^+ cells in the chemical-treated wells from that of control wells. Standard deviation of TRA-1-60^+ percentage in control wells was calculated and 3-fold of this value was taken as threshold to pick up the primary hit.

**Q.** How did the “TRA-1-81+ cell population after acute drug treatment” value (A549 cell line) turn out when `CCc1c2c(nc3ccc(OC(=O)N4CCC(N5CCCCC5)CC4)cc13)-c1cc3c(c(=O)n1C2)COC(=O)[C@]3(O)CC` [CPT-11, Irinotecan hydrochloride] was run?
**A.** Its value is “significant enhancement”.

**Q.** And the “TRA-1-81+ cell population after acute drug treatment” value (TRA-1-81+ SW1990 cells)?
**A.** Its value is “highly enriched”.

**Q.** With `Nc1ccn([C@@H]2O[C@H](CO)[C@@H](O)C2(F)F)c(=O)n1` [GEM, Gemcitabine hydrochloride] as the molecule, how does the IC50 (SW1990 cells) read?
**A.** Its IC50 is 9.6 ± 3.2 nM.

**Q.** And the IC50 (SW1990GR cells)?
**A.** The IC50 was 59.4 ± 5.3 nM.

**Q.** What about the “TRA-1-81+ cell population after acute drug treatment” value (A549 cell line) of the same molecule?
**A.** Its value is “significant increase”.

**Q.** And the “TRA-1-81+ cell population after acute GEM treatment” value (DU145 cell line)?
**A.** The value was “significant increase”.

**Q.** And the “TRA-1-81+ cell population after acute GEM treatment” value (HCT116 cell line)?
**A.** The value was “significant increase”.

**Q.** And the “TRA-1-81+ cell population after acute GEM treatment” value (HT29 cell line)?
**A.** The value was “significant increase”.

**Q.** What about the “TRA-1-81+ cell population after acute GEM treatment” value (RKO cell line) of the same molecule?
**A.** The value was “significant increase”.

**Q.** And the “TRA-1-81+ cell population after acute drug treatment” value (TRA-1-81+ SW1990 cells)?
**A.** The value was “significant increase”.

**Q.** And the “tumor growth (luciferase intensity)” value (SW1990 xenograft tumors [1]; 3 weeks, i.p. twice per week, GEM 50 mg/kg, CYM 2 mg/kg)?
**A.** Its value is “grew more slowly”.

**Q.** What about the “percentage of TRA-1-60+ cells in xenograft tumors” value (SW1990 xenograft tumors [1]; GEM-treated tumors without CYM, immunofluorescence) of the same molecule?
**A.** The value was ~27%.

**Q.** And the “percentage of TRA-1-60+ cells in GR xenograft tumors” value (SW1990 xenograft tumors [2])?
**A.** Its value is “significantly increased”.

**Q.** What about the “TRA-1-60 staining in patient derived xenograft tumors” value [3] of the same molecule?
**A.** The value was “detected”.

**Q.** For `C[C@@H]1O[C@@H](O[C@H]2C[C@@H](O)[C@]3(CO)[C@H]4[C@H](O)C[C@]5(C)[C@@H](C6=CC(=O)OC6)CC[C@]5(O)[C@@H]4CC[C@]3(O)C2)[C@H](O)[C@H](O)[C@H]1O` [Ouabain], which “validation of primary hit” value (TRA-1-60+ SW1990GR cells) is on record?
**A.** Its value is “able to be validated”.

**Q.** For `Nc1nc2[nH]cc(CCc3ccc(C(=O)N[C@@H](CCC(=O)O)C(=O)O)cc3)c2c(=O)[nH]1` [PMX, Pemetrexed disodium heptahydrate], which “TRA-1-81+ cell population after acute drug treatment” value (A549 cell line) is on record?
**A.** Its value is “significant enhancement”.

**Q.** And the “TRA-1-81+ cell population after acute drug treatment” value (TRA-1-81+ SW1990 cells)?
**A.** Its value is “highly enriched”.
